This note sets out measurements from patent publication US20230136562A1, “SPIROUREA DERIVATIVES” (Idorsia Pharmaceuticals Ltd, priority 2020, published 2023).

Assay [1] deals with primary neuronal cultures from embryonic rat brains. As to the kind of experiment: Rat oscillation assay (FLIPR, neuronal calcium oscillations). The class given is cell-based. Conditions: Rattus norvegicus. The method in brief:
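Cortical neurons from E18 Wistar rat embryos, cultured 8–10 days at high density, loaded with 1 μM Fluo-8 AM; calcium oscillations recorded by FLIPR once per second in Mg-free HBSS with 2 mM CaCl2, 20 mM HEPES, pH 7.4. Two acquisitions ("Acute", 500 sec, compound added at 250 sec; "20 min"), ± Kv7 blocker XE-991.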

A further assay concerns Wistar rats. As to the kind of experiment: Amygdala-kindling rat model. In kind it is in vivo. Conditions: 1 mg/kg po, time of challenge 30 min, HCl salt, formulation 90% MC 0.5% + 10% PEG400. How it is done:
Formulation and Administration.
Compounds were formulated in a 10% polyethylene glycol 400 (PEG 400)/90% aqueous solution of 0.5% methylcellulose (MC 0.5%). Firstly drugs are dissolved in PEG 400 and then suspended in MC 0.5% for oral gavage at X mg/5 mL/kg (X see table).
Amygdala-Kindling Rat Model:
1. Procedure: Adult male Wistar rats (Harlan Laboratories, Netherlands, or Charles Rivers, Germany; body weight 300-350 g) were stereotaxically implanted with twisted bipolar plastic-coated stainless steel electrode (MS333-2-BIU 10 mm, Plastics One) into the right basolateral amygdala under isoflurane anesthesia. To place the electrode, trepanations were made in the skull and the electrode was lowered into the right basolateral amygdala (from bregma: anteriorposterior (AP): −2.5 mm, medio-lateral (ML): −3.5 mm, dorso-ventral (DV): −8.6 mm; α=10°) and secured to the skull with screws and dental acrylate. After one week of recovery, they were handled daily and habituated over one week to the kindling set-up. Kindling procedure: For a kindling session each rat was placed individually into a smooth acrylic plastic, round-bottomed bowl (Ø 36 cm, height 36 cm, BASi movement-responsive caging system) and its intracranial implanted electrode was connected to the stimulator (STG4008, Multichannel Systems GmbH) and the recording devices (PowerLab 8/35, ADInstruments Ltd) via a cable (335-340/3 (C), Plastics One). For the kindling procedure, each rat was exposed once daily to an electrical stimulation and the behavioral symptoms of the evoked seizure were observed and classified according to the modified Racine scale (stage 0, arrest, wet dog shakes, normal behaviour; stage 1, facial twitches: nose, lips, eyes; stage 2, chewing, head nodding; stage 3, forelimb clonus; stage 4, rearing, falling on forelimbs; stage 5, rearing, falling on side or back, rolling). The electrical stimulus consists of a 1s-train of 50 Hz square-wave biphasic pulses of 1-ms duration at an intensity of 400 μA (suprathreshold intensity). […] Data Scoring and analysis. The duration of electroencephalographic seizures (afterdischarge, AD) was recorded using LabChart7 Pro software (ADlnstruments Ltd). Simultaneously, videos were recorded to evaluate seizure stage (SS).
2. Compound testing: Acute drug effects were evaluated in groups of 6-8 fully kindled rats in a randomized cross-over design with 48 h between drug and vehicle applications. Following oral administration of drug or vehicle, drug testing included determination of the afterdischarge threshold (the minimal stimulation intensity necessary to evoke an afterdischarge (electroencephalographically measured neuronal hyper-synchronous activity with an amplitude 2-times higher than baseline amplitude and a frequency of ≥1 Hz) of at least 3 sec duration) and monitoring electroencephalographic and behavioral correlates of the evoked seizure at ADT (afterdischarge threshold), including AD duration and SS, by a experimenter blind to treatment assignment.

Molecules are shown by their SMILES. Read-outs that look alike come from different tables or passages of the source.

By IC50 is commonly meant the concentration that gives 50% inhibition.

For the compound `C[C@H](NC(=O)NC1CC2(CCC2)C1)c1ccnc(OC(F)F)c1` (single isomer, unassigned) [Example 168], in assay [1] (20 min, AUC of fluorescence measured 20 min after compound addition, read-out: FLIPR: IC50 [nM] 20 min), the IC50 came to 3 nM. Also, in assay [1] (Acute phase, ratio of AUC fluorescence before and after compound addition, read-out: FLIPR: IC50 [nM] acute), the IC50 amounted to 3.7 nM. In addition, in the assay on Wistar rats, the “AD duration [% vs veh]” value is −84 % vs veh and the “Seizure stage [% vs veh]” value is listed as −58 % vs veh.
